Values of other authors, collected in patent US20040147441A1, “Methods and reagents for preventing bacteremias” (priority 2002, published 2004).
In brackets after ≈: the same amount, converted by molar mass.

Columns and labels:
[1] = tested on: E. faecalis (strains K-99-34, K-00-184, and K-00-221); conditions: Rhee 2002
[2] = tested on: S. aureus Strain Smith; conditions: Mueller-Hinton Broth
[3] = tested on: E. facium (multidrug resistant); conditions: Mobarakai et al. 1994
[4] = tested on: C. Difficile; conditions: Dong et al. 1987
[5] = tested on: S. aureus (methicillin susceptible); conditions: J. Antimicrob. Chemother. 48: 283-286, 2001
[6] = tested on: S. aureus (methicillin resistant)
[7] = tested on: S. pneumoniae (penicillin susceptible)
[8] = tested on: S. pneumoniae (penicillin resistant)
[9] = tested on: S. pyrogens
[10] = tested on: E. facium (vancomycin susceptible)
[11] = tested on: E. facium (vancomycin resistant)
[12] = tested on: E. faecalis (vancomycin susceptible)

For `CC(C)C[C@@H]1NC(=O)[C@@H]2CCCN2C1=O` [Cyclo(leu-pro), cyclo-(Leu-Pro)], the “MIC (minimal growth inhibitory concentration)” value [1] is given as “MIC = 12.5 μg/ml”.
For Aspartocin, the “MIC (no CaCl2)” value [2] is given as 2 µg/mL and the “MIC (with CaCl2)” value [2] is given as 1 µg/mL.
In the case of `CCCCCCCCCC(=O)N[C@@H](Cc1c[nH]c2ccccc12)C(=O)N[C@H](CC(N)=O)C(=O)N[C@@H](CC(=O)O)C(=O)N[C@@H]1C(=O)NCC(=O)N[C@@H](CCCN)C(=O)N[C@@H](CC(=O)O)C(=O)N[C@H](C)C(=O)N[C@@H](CC(=O)O)C(=O)NCC(=O)N[C@H](CO)C(=O)N[C@@H]([C@H](C)CC(=O)O)C(=O)N[C@@H](CC(=O)c2ccccc2N)C(=O)O[C@@H]1C` [daptomycin], the “MIC (minimal growth inhibitory concentration)” value [3] is listed as “MIC = 2.0-4.0 μg/ml”, the “MIC (minimal growth inhibitory concentration)” value [4] is listed as “MIC = 16.0 μg/ml” and the “MIC (no CaCl2)” value [2] is listed as 1 µg/mL (≈ 0.617 µM). The “MIC (with CaCl2)” value [2] was 0.5 µg/mL (≈ 0.309 µM).
For `CN[C@H](CC(C)C)C(=O)N[C@H]1C(=O)N[C@@H](CC(N)=O)C(=O)N[C@H]2C(=O)N[C@H]3C(=O)N[C@H](C(=O)N[C@H](C(=O)O)c4cc(O)cc(O)c4-c4cc3ccc4O)[C@H](O[C@H]3C[C@](C)(N)[C@@H](O)[C@H](C)O3)c3ccc(c(Cl)c3)Oc3cc2cc(c3O[C@@H]2O[C@H](CO)[C@@H](O)[C@H](O)[C@H]2O[C@H]2C[C@](C)(NCc3ccc(-c4ccc(Cl)cc4)cc3)[C@@H](O)[C@H](C)O2)Oc2ccc(cc2Cl)[C@H]1O` [oritavancin], the “MBC (minimal bactericidal concentration)” value [5] is given as 4.0 to 8.0 µg/mL, the “MIC (minimal growth inhibitory concentration)” value [5] is given as 2.0 to 4.0 µg/mL and the “MBC (minimal bactericidal concentration)” value [6] is given as 8.0 to 16.0 µg/mL. For the same molecule, the “MIC (minimal growth inhibitory concentration)” value [6] was 2.0 to 4.0 µg/mL, the “MBC (minimal bactericidal concentration)” value [7] was “MIC = <0.03; MBC = <0.03 μg/ml” and the “MIC (minimal growth inhibitory concentration)” value [7] was “MIC = <0.03; MBC = <0.03 μg/ml”. For the same molecule, the “MBC (minimal bactericidal concentration)” value [8] was “MIC = <0.03; MBC = <0.03 μg/ml”, the “MIC (minimal growth inhibitory concentration)” value [8] was “MIC = <0.03; MBC = <0.03 μg/ml” and the “MBC (minimal bactericidal concentration)” value [9] was 0.5 to 1.0 µg/mL. The “MIC (minimal growth inhibitory concentration)” value [9] was 0.12 to 0.25 µg/mL, the “MBC (minimal bactericidal concentration)” value [10] was 1.0 to 2.0 µg/mL and the “MIC (minimal growth inhibitory concentration)” value [10] was 0.12 to 0.25 µg/mL. The “MBC (minimal bactericidal concentration)” value [11] was 4.0 to 8.0 µg/mL, the “MIC (minimal growth inhibitory concentration)” value [11] was 1.0 to 2.0 µg/mL and the “MBC (minimal bactericidal concentration)” value [12] was 1.0 to 2.0 µg/mL. The “MIC (minimal growth inhibitory concentration)” value [12] was 0.5 to 1.0 µg/mL.
For teicoplanin, the “MBC (minimal bactericidal concentration)” value [5] is given as 2.0 to 8.0 µg/mL, the “MIC (minimal growth inhibitory concentration)” value [5] is given as 0.5 to 4.0 µg/mL and the “MBC (minimal bactericidal concentration)” value [6] is given as 8.0 to 16.0 µg/mL. The “MIC (minimal growth inhibitory concentration)” value [6] was 2.0 to 4.0 µg/mL, the “MBC (minimal bactericidal concentration)” value [7] was “MIC = <0.03; MBC = <0.03 μg/ml” and the “MIC (minimal growth inhibitory concentration)” value [7] was “MIC = <0.03; MBC = <0.03 μg/ml”. The “MBC (minimal bactericidal concentration)” value [8] was “MIC = <0.03; MBC = <0.03 μg/ml”, the “MIC (minimal growth inhibitory concentration)” value [8] was “MIC = <0.03; MBC = <0.03 μg/ml” and the “MBC (minimal bactericidal concentration)” value [9] was 0.06 to 0.25 µg/mL. The “MIC (minimal growth inhibitory concentration)” value [9] was 0.03 to 0.06 µg/mL, the “MBC (minimal bactericidal concentration)” value [10] was 2.0 to 4.0 µg/mL and the “MIC (minimal growth inhibitory concentration)” value [10] was 0.25 to 0.5 µg/mL. For the same molecule, the “MBC (minimal bactericidal concentration)” value [11] was “MIC = >16.0; MBC = >16.0 μg/ml”, the “MIC (minimal growth inhibitory concentration)” value [11] was “MIC = >16.0; MBC = >16.0 μg/ml” and the “MIC (minimal growth inhibitory concentration)” value [3] was “MIC 8.0-1,024 μg/ml”. The “MBC (minimal bactericidal concentration)” value [12] was 2.0 to 4.0 µg/mL and the “MIC (minimal growth inhibitory concentration)” value [12] was > 0.25 µg/mL.
For Laspartomycin, the “MIC (no CaCl2)” value [2] is listed as 16 µg/mL and the “MIC (with CaCl2)” value [2] is listed as 2 µg/mL.
For Zaomycin, the “MIC (no CaCl2)” value [2] is listed as 10 µg/mL and the “MIC (with CaCl2)” value [2] is listed as 1 µg/mL.
